Patent US20210278408A1, “METHODS OF TREATMENT OF CANCER WITH SUBSTITUTED PYRROLE AND PYRAZOLE COMPOUNDS AND DIAGNOSIS OF CANCERS SUSCEPTIBLE TO TREATMENT WITH SUBSTITUTED PYRROLE AND PYRAZOLE COMPOUNDS” (Bantam Pharmaceutical, LLC, priority 2018, published 2021)
Read-outs that look alike come from different tables or passages of the source.

Tested on: 407 cancer cell lines
Experiment: Cell viability of cancer cell lines (IC50), CellTiter-Glo Viability Assay, 96 h
Type: cell-based
Details: for IC50: read-out: Absolute IC50
Description: Viability was determined by using the 50% inhibitory concentration (IC50) as determined with the CellTiter-Glo® Viability Assay (Promega).
Experiments were initiated by first thawing and equilibrating the CellTiter-Glo® Buffer to room temperature. The lyophilized CellTiter-Glo® Substrate was also equilibrated to room temperature. The lyophilized substrate was reconstituted with the CellTiter-Glo® buffer to form the CellTiter-Glo® Reagent.
Cells were harvested during the logarithmic growth period, counted, and the cell concentration adjusted to 4.44×10^4 cells/mL using culture medium.
Cells were allowed to grow overnight and the following day, the TO reading was obtained by adding 10 μL culture medium to each well of Plate A. The plate was allowed to equilibrate at room temperature for thirty minutes, after which 50 μL CellTiter-Glo® reagent was added to each well. The contents were mixed for 5 min on an orbital shaker to induce cell lysis. Plates were incubated for 20 minutes to stabilize the luminescent signal and the TO luminescence recorded.
Test plate B was incubated for 96 h in the humidified incubator at 37° C. with 5% CO2.
Following the incubation, the plate was equilibrated at room temperature for thirty minutes. CellTiter-Glo® (50 μL) was added to each well of the plate and contents mixed for five minutes on an orbital shaker to induce cell lysis. The luminescent signal was allowed to stabilize at room temperature for 20 minutes and the luminescence recorded.
IC50 (EC50) was calculated using a dose-response curve, fitted using a nonlinear regression model with a sigmoidal dose response. Survival rate was calculated using the formula:
The Surviving rate (%)=(LumTest article−LumMedium control)/(LumNon-treated−LumMedium control)×100%.
Absolute IC50 (EC50) was calculated according to the dose-response curve generated by the statistical software (GraphPad Prism 5.0).

Structure (SMILES): N.N.[Cl][Pt][Cl] [Cisplatin, reference compound]
- IC50 (MV-4-11 cells, 96 h): 0.41 µM
- IC50 (MX-1): 2.39 µM
- IC50 (Molt-4): 0.7 µM
- IC50 (MsTo 211H): 2.5 µM
- IC50 (NAMALWA CSN/70): 0.28 µM
- IC50 (NAMALWA cells, 96 h): 0.63 µM
- IC50 (NB4 cells, 96 h): 0.84 µM
- IC50 (NCI-H23 cells, 96 h): 0.75 µM
- IC50 (NCI-H69 cells, 96 h): 3.28 µM
- IC50 (NCI-H82, 96 h): 1.83 µM
- IC50 (NCI-H146 cells, 96 h): 1.81 µM
- IC50 (NCI-H187): 0.68 µM
- IC50 (NCI-H209 cells, 96 h): 0.44 µM
- IC50 (NCI-H226): 3.56 µM
- IC50 (NCI-H292 cells, 96 h): 2.25 µM
- IC50 (NCI-H322 cells, 96 h): 10.8 µM
- IC50 (NCI-H358 cells, 96 h): 6.07 µM
- % inhibition at top conc. (NCI-H441 cells, 96 h): 74.99%
- IC50 (NCI-H441 cells, 96 h): 6.18 µM
- IC50 (NCI-H446 cells, 96 h): 1.93 µM
- IC50 (NCI-H460 cells, 96 h): 2.77 µM
- IC50 (NCI-H508 cells, 96 h): 8.02 µM
- IC50 (NCI-H520 cells, 96 h): 10.7 µM
- IC50 (NCI-H522 cells, 96 h): 4.49 µM
- IC50 (NCI-H526 cells, 96 h): 0.33 µM
- IC50 (NCI-H596): 2.06 µM
- IC50 (NCI-H661 cells, 96 h): 6.42 µM
- IC50 (NCI-H716 cells, 96 h): 8.99 µM
- IC50 (NCI-H727 cells, 96 h): 13.2 µM
- IC50 (NCI-H747 cells, 96 h): 7.3 µM
- IC50 (NCI-H820 cells, 96 h): 0.79 µM
- IC50 (NCI-H929): 3.07 µM
- IC50 (NCI-H1048 cells, 96 h): 1.37 µM
- IC50 (NCI-H1155 cells, 96 h): 2.15 µM
- IC50 (NCI-H1299 cells, 96 h): 2.67 µM
- IC50 (NCI-H1373): 1.45 µM
- IC50 (NCI-H1395): 2.91 µM
- IC50 (NCI-H1435): 14.8 µM
- IC50 (NCI-H1437 cells, 96 h): 5.67 µM
- IC50 (NCI-H1563): 16.9 µM
- IC50 (NCI-H1568 cells, 96 h): 0.95 µM
- IC50 (NCI-H1573 cells, 96 h): 10.6 µM
- IC50 (NCI-H1581 cells, 96 h): 2.98 µM
- IC50 (NCI-H1648 cells, 96 h): 8.25 µM
- IC50 (NCI-H1650): 5.12 µM
- IC50 (NCI-H1651 cells, 96 h): 0.62 µM
- IC50 (NCI-H1666 cells, 96 h): 6.16 µM
- IC50 (NCI-H1688): 13.8 µM
- IC50 (NCI-H1703 cells, 96 h): 6.11 µM
- IC50 (NCI-H1781 cells, 96 h): 0.64 µM
- IC50 (NCI-H1838 cells, 96 h): 6.41 µM
- IC50 (NCI-H1915 cells, 96 h): 5.23 µM
- IC50 (NCI-H1975 cells, 96 h): 3.24 µM
- IC50 (NCI-H1993 cells, 96 h): 10.4 µM
- IC50 (NCI-H2009): 16.7 µM
- IC50 (NCI-H2052): 5.77 µM
- IC50 (NCI-H2087 cells, 96 h): 1.01 µM
- IC50 (NCI-H2122 cells, 96 h): 8.93 µM
- IC50 (NCI-H2170 cells, 96 h): 1.02 µM
- IC50 (NCI-H2228 cells, 96 h): 4.6 µM
- % inhibition at top conc. (NCI-H2452): 80.91%
- IC50 (NCI-H2452): 35.5 µM
- IC50 (NCI-H3122 cells, 96 h): 5.73 µM
- IC50 (NCI-N87, 96 h): 0.95 µM
- IC50 (NK-92MI): 1.2 µM
- IC50 (NOZ): 1.19 µM
- IC50 (NUGC-3 cells, 96 h): 0.25 µM
- IC50 (NUGC-4 cells, 96 h): 3.65 µM
- IC50 (OCI-AML3): 2.34 µM
- IC50 (OCI-LY7 cells, 96 h): 1.81 µM
- IC50 (OCUG-1): 16.3 µM
- IC50 (OCUM-1 cells, 96 h): 9.94 µM
- IC50 (OCUM-2D cells, 96 h): 2.59 µM
- IC50 (OCUM-2M cells, 96 h): 3.62 µM
- % inhibition at top conc. (OE19, 96 h): 81.07%
- IC50 (OE19, 96 h): 19.4 µM
- IC50 (OPM2): 0.79 µM
- IC50 (OS-RC-2): 3.5 µM
- IC50 (OSC-19 cells, 96 h): 8.56 µM
- IC50 (OVCAR-3 cells, 96 h): 5.11 µM
- IC50 (OVCAR-8 cells, 96 h): 3.13 µM
- IC50 (OZ): 15 µM
- IC50 (PANC-1): 4.61 µM
- IC50 (PC-3): 4.66 µM
- IC50 (PC-9 cells, 96 h): 1.97 µM
- IC50 (PEER): 2.04 µM
- IC50 (PL45): 1.76 µM
- IC50 (PLC/PRF/5): 8.47 µM
- IC50 (Pfeiffer cells, 96 h): 1.99 µM
- IC50 (RBE cells, 96 h): 4.14 µM
- IC50 (RD-ES): 0.8 µM
- IC50 (RKO): 3.08 µM
- IC50 (RPMI 8226 cells, 96 h): 4.04 µM
- IC50 (RPMI-2650 cells, 96 h): 1.89 µM
- IC50 (RS4;11): 0.33 µM
- IC50 (RT4 cells, 96 h): 4.2 µM
- IC50 (RT112/84): 0.93 µM
- IC50 (Raji cells, 96 h): 2.07 µM
- IC50 (Ramos cells, 96 h): 0.64 µM
- IC50 (Reh): 0.43 µM
- IC50 (SCC-4, 96 h): 2.96 µM
- IC50 (SCC-9 cells, 96 h): 8.37 µM
- IC50 (SCC-15 cells, 96 h): 3.3 µM
- IC50 (SCH cells, 96 h): 6.82 µM
- IC50 (SF268 cells, 96 h): 1.43 µM
- IC50 (SF-126 cells, 96 h): 1.95 µM
- IC50 (SF-763): 7.56 µM
- IC50 (SH-SY5Y): 0.27 µM
- IC50 (SJSA-1): 3.29 µM
- IC50 (SK-BR-3): 0.6 µM
- IC50 (SK-CO-1 cells, 96 h): 0.21 µM
- IC50 (SK-HEP-1 cells, 96 h): 13.2 µM
- IC50 (SK-LU-1 cells, 96 h): 1.38 µM
- IC50 (SK-MEL-5, 96 h): 3.2 µM
- IC50 (SK-MEL-28, 96 h): 5.62 µM
- IC50 (SK-MES-1): 2.63 µM
- IC50 (SK-N-FI cells, 96 h): 1.34 µM
- IC50 (SK-N-SH): 0.36 µM
- IC50 (SK-NEP-1 cells, 96 h): 0.6 µM
- IC50 (SK-OV-3 cells, 96 h): 2.88 µM
- IC50 (SK-UT-1 cells, 96 h): 6.94 µM
- IC50 (SNU-1 cells, 96 h): 2.15 µM
- IC50 (SNU-5, 96 h): 2.1 µM
- IC50 (SNU-81): 3.7 µM
- IC50 (SNU-216 cells, 96 h): 6.07 µM
- IC50 (SNU-354): 13.8 µM
- % inhibition at top conc. (SNU-368): 81.47%
- IC50 (SNU-368): 20.2 µM
- IC50 (SNU-387): 43.4 µM
- IC50 (SNU-398): 4.9 µM
- IC50 (SNU-423 cells, 96 h): 6.06 µM
- IC50 (SNU-449): 3.52 µM
- IC50 (SNU-475 cells, 96 h): 0.52 µM
- IC50 (SNU-484 cells, 96 h): 4.96 µM
- IC50 (SNU-601 cells, 96 h): 0.6 µM
- IC50 (SNU-620 cells, 96 h): 7.03 µM
- IC50 (SNU-638 cells, 96 h): 4.48 µM
- IC50 (SNU-668 cells, 96 h): 4.96 µM
- IC50 (SNU-719 cells, 96 h): 13.3 µM
- IC50 (SNU-739): 0.81 µM
- IC50 (SNU-761 cells, 96 h): 1.39 µM
- IC50 (SNU-2535 cells, 96 h): 16.3 µM
- IC50 (SNU-C2A): 1.77 µM
- IC50 (SNU-C5 cells, 96 h): 2.36 µM
- IC50 (ST486 cells, 96 h): 0.26 µM
- IC50 (SU-DHL-1): 0.28 µM
- IC50 (SU-DHL-4): 0.34 µM
- IC50 (SU-DHL-5 cells, 96 h): 0.5 µM
- IC50 (SU-DHL-6 cells, 96 h): 1.85 µM
- IC50 (SU-DHL-8): 0.7 µM
- IC50 (SUM159PT): 3.15 µM
- IC50 (SUP-B15): 1.39 µM
- IC50 (SW48 cells, 96 h): 1.27 µM
- IC50 (SW 156 cells, 96 h): 1.03 µM
- IC50 (SW480): 1.82 µM
- IC50 (SW579 cells, 96 h): 1.41 µM
- IC50 (SW626 cells, 96 h): 3.97 µM
- IC50 (SW684 cells, 96 h): 33.4 µM
- % inhibition at top conc. (SW756 cells, 96 h): 84.79%
- IC50 (SW780 cells, 96 h): 1.98 µM
- IC50 (SW837 cells, 96 h): 4.21 µM
- IC50 (SW948 cells, 96 h): 17.8 µM
- IC50 (SW1116 cells, 96 h): 7.94 µM
- % inhibition at top conc. (SW1271): 85.04%
- IC50 (SW1271): 17.1 µM
- IC50 (SW1417 cells, 96 h): 6.91 µM
- IC50 (SW1990): 0.85 µM
- IC50 (SW-13): 1.38 µM
- IC50 (SiHa cells, 96 h): 10.5 µM
- IC50 (T24 cells, 96 h): 1.04 µM
- IC50 (T47D): 5.25 µM
- IC50 (T84): 3.17 µM
- IC50 (TF-1): 5.11 µM
- IC50 (TJ905 cells, 96 h): 9.46 µM
- IC50 (TT cells, 96 h): 28.1 µM
- IC50 (Toledo cells, 96 h): 0.49 µM
- IC50 (U251 cells, 96 h): 3.52 µM
- IC50 (U266B1): 4.53 µM
- IC50 (U-87 MG cells, 96 h): 4.05 µM
- IC50 (U-2932 cells, 96 h): 0.79 µM
- IC50 (UACC-812 cells, 96 h): 4.61 µM
- IC50 (UO.31 cells, 96 h): 4.4 µM
- IC50 (WM-266-4 cells, 96 h): 3.12 µM
- IC50 (WSU-DLCL2 cells, 96 h): 1.37 µM
- IC50 (WSU-NHL cells, 96 h): 0.23 µM
- IC50 (Y-79 cells, 96 h): 4.56 µM
- IC50 (YCC-1 cells, 96 h): 6.62 µM
- IC50 (YCC-2 cells, 96 h): 0.72 µM
- IC50 (YCC-6 cells, 96 h): 2.62 µM
- IC50 (YCC-10, 96 h): 0.69 µM
- IC50 (YCC-11 cells, 96 h): 0.62 µM
- IC50 (Z-138): 1.02 µM
- IC50 (ZR-75-1): 5.73 µM
- IC50 (ZR-75-30, 96 h): 2.99 µM
